From patent US20240237649A1, “CRYSTALLINE FORMS OF 5-FLUORO-4-IMINO-3-METHYL-1-TOSYL-3,4-DIHYDROPYRIMIDIN-2-ONE, AND MIXTURES, COMPOSITIONS AND METHODS OF USE THEREOF” (Adama Makhteshim Ltd., priority 2021, published 2024)

Experiment: Chemical stability: concentration / degradation of compound of Formula I in compositions on storage
[1] = SC composition at pH 4, Table 12

Protocol: The amount of degradation permitted before the degradation is considered to be significant depends on the concentration of the active ingredients in the composition.
The physical and chemical stability of composition of Example 5 was tested under various conditions including CIPAC conditions.

Compound: Cc1ccc(S(=O)(=O)n2cc(F)c(=N)n(C)c2=O)cc1 [Hydrate I (45% Hydrate, and 55% Form I Polymorph)] [5-fluoro-4-imino-3-methyl-1-tosyl-3,4-dihydropyrimidin-2(1H)-one]
- % Water Content (total water in the composition, including free water and water in the hydrate): 0.29%

Compound: Cc1ccc(S(=O)(=O)n2cc(F)c(=N)n(C)c2=O)cc1 [compound of Formula I, 5-fluoro-4-imino-3-methyl-1-tosyl-3,4-dihydropyrimidin-2(1H)-one]
- amount of the compound of Formula I in the composition, after decrease [1]: 31.1 % by weight based on the total weight of the composition
- amount of the compound of Formula I in the composition, before decrease [1]: 44.4 % by weight based on the total weight of the composition

Compound: Cc1ccc(S(=O)(=O)n2cc(F)c(=N)n(C)c2=O)cc1 [Form III, 5-fluoro-4-imino-3-methyl-1-tosyl-3,4-dihydropyrimidin-2(1H)-one]
- stability in oil dispersion (OD) composition compared with suspension concentrate (SC) composition: more stable
